# Measured values as given in patent US11485742B2, “2-azaspiro[3.4]octane derivatives as M4 agonists” (NOVARTIS AG, priority 2019, dated 2022).
# Experiments:
# Assay type in all cases: cell-based
# [1] = molecular target: T1, human cloned CHRM5 receptor (Homo sapiens, UniProt P08912); experiment: CHRM5 Ca++ Flux Assay (M5_CHO cells, agonist mode); details: for Emax: read-out: M5 FDSS PA %; for EC50: agonist mode, geometric mean if tested more than once, read-out: M5 FDSS EC50
# T1 construct: expressed in transfected cells; host or cells: CHO (M5_CHO)
# T1 sequence (P08912 1-532): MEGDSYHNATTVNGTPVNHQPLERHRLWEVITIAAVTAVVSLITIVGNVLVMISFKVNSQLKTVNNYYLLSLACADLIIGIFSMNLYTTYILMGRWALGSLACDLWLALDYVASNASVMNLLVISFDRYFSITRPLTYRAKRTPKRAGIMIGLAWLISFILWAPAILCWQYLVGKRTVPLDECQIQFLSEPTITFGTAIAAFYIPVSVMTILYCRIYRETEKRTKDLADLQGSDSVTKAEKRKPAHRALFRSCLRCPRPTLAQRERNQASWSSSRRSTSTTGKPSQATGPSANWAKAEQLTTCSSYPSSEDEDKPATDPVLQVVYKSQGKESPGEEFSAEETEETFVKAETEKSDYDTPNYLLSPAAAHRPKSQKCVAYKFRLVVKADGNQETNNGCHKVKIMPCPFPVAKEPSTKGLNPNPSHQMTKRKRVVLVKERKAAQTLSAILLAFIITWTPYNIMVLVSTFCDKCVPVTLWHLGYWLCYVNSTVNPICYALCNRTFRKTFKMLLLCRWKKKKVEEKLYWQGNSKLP
# Procedure, shortened: (§1)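 CHO-K1 cells stably expressing human M3 or M5 receptor, dye-loaded ≥1 h, treated with 11-point compound doses in triplicate; Ca++ flux read over 3 min (FDSS). Agonist-mode four-parameter fit; percent activity relative to carbachol EC100; repeat tests reported as geometric mean.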
# [2] = molecular target: T2, human cloned CHRM3 receptor (Homo sapiens, UniProt P20309); experiment: CHRM3 Ca++ Flux Assay (M3_CHO cells, agonist mode); details: for Emax: read-out: M3 FDSS PA %; for EC50: agonist mode, geometric mean if tested more than once, read-out: M3 FDSS EC50
# T2 construct: expressed in transfected cells; host or cells: CHO-K1 (M3_CHO)
# Procedure, shortened: as §1
# [3] = molecular target: T3, Cloned human M1 receptor (CHRM1) (Homo sapiens, UniProt P11229); experiment: CHRM1 Ca++ Flux Assay (HEK293 M1 cells, agonist mode); details: for Emax: read-out: M1 FDSS PA %; for EC50: geometric mean if tested more than once, read-out: M1 FDSS EC50
# T3 construct: expressed in transfected cells; host or cells: HEK293
# T3 sequence (P11229 1-460): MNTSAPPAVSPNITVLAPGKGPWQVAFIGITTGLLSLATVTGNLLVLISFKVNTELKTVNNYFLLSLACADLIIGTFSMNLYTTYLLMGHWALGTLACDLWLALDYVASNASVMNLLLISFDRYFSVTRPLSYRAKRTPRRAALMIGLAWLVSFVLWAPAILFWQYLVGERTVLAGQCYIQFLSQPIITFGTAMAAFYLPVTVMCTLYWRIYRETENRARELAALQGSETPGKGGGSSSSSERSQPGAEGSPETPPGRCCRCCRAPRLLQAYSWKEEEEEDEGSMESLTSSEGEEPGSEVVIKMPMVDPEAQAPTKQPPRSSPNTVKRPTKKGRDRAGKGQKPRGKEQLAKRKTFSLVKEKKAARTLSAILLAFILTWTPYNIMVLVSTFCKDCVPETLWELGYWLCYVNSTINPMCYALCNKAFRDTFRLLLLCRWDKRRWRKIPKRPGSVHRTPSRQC
# Procedure, shortened: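 HEK293 cells stably expressing human M1 were loaded with Ca++ dye, then given compounds (11-point dose, triplicate) in HBSS −Ca/−Mg, 20 mM HEPES. Ca++ flux was read over 3 min (agonist mode). Four-parameter curves were fitted, with activity as percent of carbachol EC100.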
# [4] = Percent Activity (PA) measured to EC100 of Carbachol
# T2 sequence (P20309 whole entry): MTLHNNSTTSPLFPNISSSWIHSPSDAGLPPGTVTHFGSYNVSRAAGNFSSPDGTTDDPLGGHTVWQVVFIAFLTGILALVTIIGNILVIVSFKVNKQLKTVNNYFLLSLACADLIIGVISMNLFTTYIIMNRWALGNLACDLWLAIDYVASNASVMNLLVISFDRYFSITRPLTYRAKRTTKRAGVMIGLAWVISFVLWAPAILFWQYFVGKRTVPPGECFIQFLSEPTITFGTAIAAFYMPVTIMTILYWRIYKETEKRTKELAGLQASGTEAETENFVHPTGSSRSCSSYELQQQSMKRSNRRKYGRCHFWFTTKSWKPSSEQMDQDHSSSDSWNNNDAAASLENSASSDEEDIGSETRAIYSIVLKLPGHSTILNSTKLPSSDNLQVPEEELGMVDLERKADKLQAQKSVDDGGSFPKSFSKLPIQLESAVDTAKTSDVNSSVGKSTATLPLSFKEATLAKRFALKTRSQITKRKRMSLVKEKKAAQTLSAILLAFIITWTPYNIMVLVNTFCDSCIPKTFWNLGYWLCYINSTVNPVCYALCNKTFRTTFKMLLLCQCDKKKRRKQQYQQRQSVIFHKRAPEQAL
SMILES,"Emax [1, 4] [%]",EC50 [1] [µM],"Emax [2, 4] [%]",EC50 [2] [µM],Emax ([3]; Percent Activity (PA)) [%],EC50 [3] [µM],"M5 FDSS PA % [1, 4] [%]","M3 FDSS PA % [2, 4] [%]",M1 FDSS PA % ([3]; Percent Activity (PA)) [%]
"Fc1ccc(O[C@H]2CCOC2)c(C2CCN([C@@H]3COC4(C3)CN(c3nnco3)C4)CC2)c1 [Example 1H, (S)-7-(4-(5-fluoro-2-(((S)-tetrahydrofuran-3-yl)oxy)phenyl)piperidin-1-yl)-2-(1,3,4-oxadiazol-2-yl)-5-oxa-2-azaspiro[3.4]octane]",0,> 25,0,> 25,87,0.631,,,
"Fc1cc(F)c(OC2CC3(COC3)C2)c(C2CCN([C@@H]3COC4(C3)CN(c3nnco3)C4)CC2)c1 [Example 2AA, (S)-7-(4-(2-((2-oxaspiro[3.3]heptan-6-yl)oxy)-3,5-difluorophenyl)piperidin-1-yl)-2-(1,3,4-oxadiazol-2-yl)-5-oxa-2-azaspiro[3.4]octane]",0,> 25,0,> 25,30,6.66,,,
"Fc1cc(F)c(OC2CCOCC2)c(C2CCN([C@@H]3COC4(C3)CN(c3nnco3)C4)CC2)c1 [Example 2BB, (S)-7-(4-(3,5-difluoro-2-((tetrahydro-2H-pyran-4-yl)oxy)phenyl)piperidin-1-yl)-2-(1,3,4-oxadiazol-2-yl)-5-oxa-2-azaspiro[3.4]octane]",0,> 25,0,> 25,65,7,,,
"Fc1cc(F)c(O[C@@H]2CCOC2)c(C2CCN([C@@H]3COC4(C3)CN(c3nnco3)C4)CC2)c1 [Example 2CC, (S)-7-(4-(3,5-difluoro-2-(((R)-tetrahydrofuran-3-yl)oxy)phenyl)piperidin-1-yl)-2-(1,3,4-oxadiazol-2-yl)-5-oxa-2-azaspiro[3.4]octane]",0,> 25,0,> 25,85,2.18,,,
"Fc1cc(F)c(OCC2COC2)c(C2CCN([C@@H]3COC4(C3)CN(c3nnco3)C4)CC2)c1 [Example 2DD, (S)-7-(4-(3,5-difluoro-2-(oxetan-3-ylmethoxy)phenyl)piperidin-1-yl)-2-(1,3,4-oxadiazol-2-yl)-5-oxa-2-azaspiro[3.4]octane]",0,> 25,0,> 25,67,1.12,,,
"Fc1cc(F)c(OC2COC2)c(C2CCN([C@@H]3COC4(C3)CN(c3nnco3)C4)CC2)c1 [Example 2EE, (S)-7-(4-(3,5-difluoro-2-(oxetan-3-yloxy)phenyl)piperidin-1-yl)-2-(1,3,4-oxadiazol-2-yl)-5-oxa-2-azaspiro[3.4]octane]",0,> 25,0,> 25,95,2.34,,,
"Fc1cc(OC2COC2)c(C2CCN([C@@H]3COC4(C3)CN(c3nnco3)C4)CC2)cc1F [Example 2FF, (S)-7-(4-(4,5-difluoro-2-(oxetan-3-yloxy)phenyl)piperidin-1-yl)-2-(1,3,4-oxadiazol-2-yl)-5-oxa-2-azaspiro[3.4]octane]",0,> 25,0,> 25,70,0.264,,,
"Fc1cc(OC2CCOCC2)c(C2CCN([C@@H]3COC4(C3)CN(c3nnco3)C4)CC2)cc1F [Example 2GG, (S)-7-(4-(4,5-difluoro-2-((tetrahydro-2H-pyran-4-yl)oxy)phenyl)piperidin-1-yl)-2-(1,3,4-oxadiazol-2-yl)-5-oxa-2-azaspiro[3.4]octane]",0,> 25,0,> 25,64,2.9,,,
"C[C@H](Oc1ccc(F)cc1C1CCN([C@@H]2COC3(C2)CN(c2nnco2)C3)CC1)C1CCOCC1 [Example 2X, (S)-7-(4-(5-fluoro-2-((S)-1-(tetrahydro-2H-pyran-4-yl)ethoxy)phenyl)piperidin-1-yl)-2-(1,3,4-oxadiazol-2-yl)-5-oxa-2-azaspiro[3.4]octane or(S)-7-(4-(5-fluoro-2-((R)-1-(tetrahydro-2H-pyran-4-yl)ethoxy)phenyl)piperidin-1-yl)-2-(1,3,4-oxadiazol-2-yl)-5-oxa-2-azaspiro[3.4]octane]",,> 25,,> 25,,11.3,0,0,42
"Fc1ccc(OCC2C3COCC32)c(C2CCN([C@@H]3COC4(C3)CN(c3nnco3)C4)CC2)c1 (stereo partly drawn) [Example 2Z, (7S)-7-(4-(2-((3-oxabicyclo[3.1.0]hexan-6-yl)methoxy)-5-fluorophenyl)piperidin-1-yl)-2-(1,3,4-oxadiazol-2-yl)-5-oxa-2-azaspiro[3.4]octane]",0,> 25,0,> 25,11,5.06,,,

# Second part, the compound after the results:
"Emax [1, 4] [%]",EC50 [1] [µM],"Emax [2, 4] [%]",EC50 [2] [µM],Emax ([3]; Percent Activity (PA)) [%],EC50 [3] [µM],"M5 FDSS PA % [1, 4] [%]","M3 FDSS PA % [2, 4] [%]",M1 FDSS PA % ([3]; Percent Activity (PA)) [%],SMILES
0,> 25,0,> 25,72,0.598,,,,"Fc1ccc(OC[C@@H]2CCOC2)c(C2CCN([C@@H]3COC4(C3)CN(c3nnco3)C4)CC2)c1 [Example 1B, (S)-7-(4-(5-fluoro-2-(((R)-tetrahydrofuran-3-yl)methoxy)phenyl)piperidin-1-yl)-2-(1,3,4-oxadiazol-2-yl)-5-oxa-2-azaspiro[3.4]octane]"
0,> 25,0,> 25,72,0.576,,,,Fc1ccc(OC[C@H]2COCCO2)c(C2CCN([C@@H]3COC4(C3)CN(c3nnco3)C4)CC2)c1 [Example 1C]
0,> 25,0,> 25,69,0.609,,,,"Fc1ccc(O[C@@H]2CCOC2)c(C2CCN([C@@H]3COC4(C3)CN(c3nnco3)C4)CC2)c1 [Example 1D, (S)-7-(4-(5-fluoro-2-(((R)-tetrahydrofuran-3-yl)oxy)phenyl)piperidin-1-yl)-2-(1,3,4-oxadiazol-2-yl)-5-oxa-2-azaspiro[3.4]octane]"
0,> 25,0,> 25,84,0.563,,,,"CC(C)(C#N)COc1ccc(F)cc1C1CCN([C@@H]2COC3(C2)CN(c2nnco2)C3)CC1 [Example 1E, (S)-3-(2-(1-(2-(1,3,4-oxadiazol-2-yl)-5-oxa-2-azaspiro[3.4]octan-7-yl)piperidin-4-yl)-4-fluorophenoxy)-2,2-dimethylpropanenitrile]"
0,> 25,0,> 25,83,0.368,,,,"Fc1ccc(OC[C@@H]2COCCO2)c(C2CCN([C@@H]3COC4(C3)CN(c3nnco3)C4)CC2)c1 [Example 1F, (S)-7-(4-(2-(((S)-1,4-dioxan-2-yl)methoxy)-5-fluorophenyl)piperidin-1-yl)-2-(1,3,4-oxadiazol-2-yl)-5-oxa-2-azaspiro[3.4]octane]"
0,> 25,0,> 25,77,0.973,,,,"Fc1ccc(OC2CCOCC2)c(C2CCN([C@@H]3COC4(C3)CN(c3nnco3)C4)CC2)c1 [Example 1G, (S)-7-(4-(5-fluoro-2-((tetrahydro-2H-pyran-4-yl)oxy)phenyl)piperidin-1-yl)-2-(1,3,4-oxadiazol-2-yl)-5-oxa-2-azaspiro[3.4]octane]"
